{"source": "paper PMC9921564", "about": "“Novel Indole-Containing Hybrids Derived from Millepachine: Synthesis, Biological Evaluation and Antitumor Mechanism Study” (Molecules, 2023)", "key": {"[1]": {"test_system": "L-02 (normal human hepatocytes)", "experiment": "CCK-8 cytotoxicity, L-02 normal cells", "assay_type": "cell-based", "description": "A549 (non-small-cell-lung cancer cell line), Caski (human epithelial cervical cancer cell line), HepG2 (human liver carcinoma cell line), MCF-7 (human breast carcinoma cell line), C42B (human prostate cancer line C42B), L-02 (human normal hepatocytes), RWPE-1 (human prostate epithelial cells) and MCF-10A (human normal mammary epithelial cells) were obtained from National Collection of Authenticated Cell Cultures (Shanghai, China). A549/CDDP (A549 cell line resistant to cisplatin), C42B/ENZR (C42b cell line resistant to Enzalutamide), MCF-7/DOX (MCF-7 cell line resistant to doxorubicin), A2780/TAX (human ovarian cancer cell line A2780 resistant to taxol) and HCT-8/VCR (human ileocecum carcinoma cell lines HCT-8 resistant to vincristine) were kindly provided by Professor Junjian Wang and Professor Xingshu Li at Sun Yat-Sen University, China. […]\n(§1) After 24 h, the medium containing different concentrations of tested compounds were added for another 48 h. […] The optical density was recorded with a microplate reader at 570 nm (Thermo Scientific, Varioskan LUX). All the experiments were repeated independently at least three times and the IC50 values were calculated […]"}, "[2]": {"test_system": "HCT-8 (human ileocecum carcinoma cell line)", "experiment": "CCK-8 cytotoxicity, HCT-8", "assay_type": "cell-based", "details": "48 h, read-out: IC50, Mean ± SE, HCT-8", "description": "(§2) Besides the high cytotoxicity, drug resistance is the other limiting factor of chemotherapeutics. In this study, the cytotoxicities of compound 14b towards five kinds of drug-resistant cancer cell lines were also evaluated. Except three kinds of cell lines that are resistant to three drugs commonly used in clinical practice, two kinds of cell lines that are resistant to MTAs were also evaluated.\n(§3) A549 (non-small-cell-lung cancer cell line), Caski (human epithelial cervical cancer cell line), HepG2 (human liver carcinoma cell line), MCF-7 (human breast carcinoma cell line), C42B (human prostate cancer line C42B), L-02 (human normal hepatocytes), RWPE-1 (human prostate epithelial cells) and MCF-10A (human normal mammary epithelial cells) were obtained from National Collection of Authenticated Cell Cultures (Shanghai, China). […]\nas §1"}, "[3]": {"test_system": "HCT-8/VCR (HCT-8 cell line resistant to vincristine)", "experiment": "CCK-8 cytotoxicity, HCT-8/VCR", "assay_type": "cell-based", "details": "Homo sapiens, 48 h, CCK-8, vincristine-resistant, read-out: IC50, Mean ± SE, HCT-8/VCR", "description": "as §2, §3, §1"}, "tubulin": {"biological_target": "T1, tubulin (Sus scrofa, UniProt P02554)", "T1 construct": "purchased cytoskeleton, Inc. BK011P", "T1 sequence (P02554 whole entry)": "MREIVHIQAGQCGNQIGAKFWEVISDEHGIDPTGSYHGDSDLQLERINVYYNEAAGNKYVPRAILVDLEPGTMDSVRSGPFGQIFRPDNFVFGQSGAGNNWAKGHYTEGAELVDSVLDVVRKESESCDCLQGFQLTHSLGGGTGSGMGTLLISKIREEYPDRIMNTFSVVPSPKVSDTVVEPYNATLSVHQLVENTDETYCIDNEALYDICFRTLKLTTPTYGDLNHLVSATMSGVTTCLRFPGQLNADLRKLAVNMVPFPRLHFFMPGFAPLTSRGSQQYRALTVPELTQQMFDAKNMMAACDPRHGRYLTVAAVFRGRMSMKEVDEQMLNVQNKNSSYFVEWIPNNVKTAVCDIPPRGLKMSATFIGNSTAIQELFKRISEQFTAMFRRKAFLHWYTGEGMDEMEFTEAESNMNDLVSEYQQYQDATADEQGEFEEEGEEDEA", "T1 sequence (P02550 whole entry partner)": "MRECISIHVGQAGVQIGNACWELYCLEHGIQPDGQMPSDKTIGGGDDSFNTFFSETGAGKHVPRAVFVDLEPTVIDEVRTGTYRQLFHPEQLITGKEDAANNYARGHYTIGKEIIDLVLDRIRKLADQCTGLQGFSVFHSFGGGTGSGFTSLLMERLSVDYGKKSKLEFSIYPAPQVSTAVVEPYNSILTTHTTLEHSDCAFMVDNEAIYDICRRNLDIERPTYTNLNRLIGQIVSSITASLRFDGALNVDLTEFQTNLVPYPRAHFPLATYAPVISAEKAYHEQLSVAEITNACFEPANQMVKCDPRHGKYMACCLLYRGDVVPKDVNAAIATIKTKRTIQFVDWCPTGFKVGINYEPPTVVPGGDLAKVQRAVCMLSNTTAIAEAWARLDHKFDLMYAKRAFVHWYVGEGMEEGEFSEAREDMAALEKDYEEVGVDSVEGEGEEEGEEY", "experiment": "in vitro tubulin polymerization inhibition assay", "assay_type": "biochemical", "description": "Tubulin–microtubule homeostasis is crucial for cell mitosis.\nFigure 2 Effect of compound 14b on tubulin. […] The experiments were performed at least three times, and representative images are shown. Scale bars are 10 μm. […] The backbone of tubulin is shown in ribbon representation (α-tubulin, yellow; β-tubulin, green). […] The data were shown as mean ± SE (standard error) of at least three independent experiments.\n(§4) S Ⅳ. Biological evaluation methods\n(§5) The cells grown in logarithmical phase were seeded in 96-well plates with the density of 5×10^3/well.\n(§6) After 24 h, the medium containing different concentrations of tested compounds were added for another 48 h. Then, CCK-8 reagents were added to cells and continued to culture for 2 h. The optical density was recorded with a microplate reader at 570 nm (Thermo Scientific, Varioskan LUX). All the experiments were repeated independently at least three times and the IC50 values were calculated […]\n(§7) S2. In vitro tubulin polymerization inhibition assay\nThe in vitro tubulin polymerization inhibition assay was conducted according to the manufacturer ’s instruction (cytoskeleton, cat. no. BK011P). Briefly, 5 μL of the tested compounds at the indicated"}, "A549 cells": {"test_system": "A549 cells", "experiment": "cell cycle analysis by flow cytometry (PI)", "assay_type": "cell-based, human", "details": "24 h, control 14.92%", "description": "Microtubules play an important role in maintaining the normal process of cell mitosis.\nFigure 3 Compound 14b induced cell cycle arrest at the G2/M phase. (A) The PI-stained DNA content detected by flow cytometry. A549 cells were treated with or without compound 14b at concentrations of 10, 20 and 50 nM for 24 h; then, the cells were harvested for cell cycle analysis by flow cytometry. (B) Quantitative analysis of the percentage of cells in each cell cycle phase by CytExpert analysis software. The experiments were performed at least three times, and the results of the representative experiments are shown.\nas §4, §5, §6, §7\nThe in vitro tubulin polymerization inhibition assay was conducted according to the manufacturer ’s instruction (cytoskeleton, cat. no. BK011P). Briefly, 5 μL of the tested compounds at the indicated concentrations which were prepared with the buffer solution (containing 80.0 mM piperazine-N,N-bis(2-ethanesulfonic acid) sequiso-dium salt (pH 6.9), 10.2% glycerol, 2.0 mM MgCl2, 1 mM GTP, and 0.5 mM EGTA) was added to the plate. After the mixture was warmed to 37 °C for 1 min, the reaction was initiated by the addition of 55 μL of the tubulin solution which was kept on ice in prior.\nThe fluorescence intensity enhancement (emission wavelength is 410 nm, excitation wavelength is 340 nm) was recorded every 60 s for 60 min in a multifunction microplate reader (Molecular Devices, Flex Station 3). […]"}}, "data": [{"smiles": "COc1ccc(C(=O)c2ccc3c(ccn3C)c2)c2c1C=CC(C)(C)O2", "note": "[compound 14b, (5-methoxy-2,2-dimethyl-2H-chromen-8-yl)(1-methyl-1H-indol-5-yl)methanone]", "values": [{"measurement": "IC50", "setting": "[1]; Homo sapiens, Hepatocyte, 48 h, CCK-8, normal cells, read-out: IC50, Mean ± SE, L-02", "value": "1260 ± 214", "unit": "nM"}, {"measurement": "Selectivity Ratio", "setting": "[1]; IC50 L-02 / IC50 Hep-G2", "value": 16.97}, {"measurement": "IC50", "setting": "[2]", "value": "89 ± 15", "unit": "nM"}, {"measurement": "IC50", "setting": "[3]", "value": "122 ± 36", "unit": "nM"}, {"measurement": "effect on tubulin polymerization", "setting": "tubulin; 5 μM, Figure 2A,B", "value": "inhibited tubulin polymerization in a colchicine-like manner"}, {"measurement": "IC50", "setting": "tubulin; in vitro, area under the curve", "value": "2070 ± 150", "unit": "nM"}, {"measurement": "percentage of cells in G2/M", "setting": "A549 cells; A549, 10 nM", "value": 26.88, "unit": "%"}, {"measurement": "percentage of cells in G2/M", "setting": "A549 cells; A549, 20 nM", "value": 35.02, "unit": "%"}, {"measurement": "percentage of cells in G2/M", "setting": "A549 cells; A549, 50 nM", "value": 52.67, "unit": "%"}]}]}
